Here are results for four molecules from patent publication US4327097A, “Novel penicillins” (Toyama Chemical Co., Ltd., priority 1974, dated 1982).

One experiment has as its system Pseudomonas aeruginosa. The experiment in a line: MIC against clinical isolates. The format is cell-based. Conditions: unit assumed.
In experiment [1] the target is β-lactamase, Escherichia freundii GN 346 (Citrobacter freundii, UniProt Q46041). Kind of experiment: Resistant activity against β-lactamase, iodometric assay. It is filed as biochemical. Conditions: control Cephalorizine = 100. As for the experimental part:
(§1) (4) Resistant activity of each cephalosporin compound against β-lactamase, Proteus vulgaris GN 76 and Escherichia freundii GN 346:
(§2) The resistant activity of each cephalosporin compound against β-lactamase was measured in the manner described below.
(§3) β-lactamase was prepared from Proteus vulgaris GN 76 and Escherichia freundii GN 346. 10 ml of an overnight culture in Heart Infusion broth was diluted with 100 ml of a medium containing 2 g of yeast extract, 10 g of polypeptone, 2 g of glucose, 7 g of disodium hydrogen phosphate, 2 g of potassium dihydrogen phosphate, 1.2 g of ammonium sulfate and 0.4 g of magnesium sulfate, per liter, and incubated with shaking at 37° C. After incubation of 2 hrs, Penicillin G (50 μg/ml) was added as the inducer, and further incubated for 2 hrs. The resulting cells were collected by centrifugation (5,000 r.p.m.×10 min.) and washed two times with 0.1 M phosphate buffer (pH 7.0). Subsequently, the cells were subjected to sonication (20 KHz, 5 min.) and then centrifuged at 15,000 r.p.m. for 60 min. By using the supernatant of enzyme fluid, the stability of each compound against β-lactamase was determined by the iodometric assay method. Each numeral shown in Table 7-2 is a relative activity value calculated by assuming as 100 the activity of the control Cephalorizine.

For experiment [2], the target named is T1, β-lactamase, Proteus vulgaris GN 76 (Proteus vulgaris, UniProt P52664).
T1 construct: By using the supernatant of enzyme fluid; endogenous in cells; host or cells: Proteus vulgaris GN 76 (penicillin G-induced cells, sonicated, 15,000 r.p.m. supernatant)
T1 sequence (P52664 30-300): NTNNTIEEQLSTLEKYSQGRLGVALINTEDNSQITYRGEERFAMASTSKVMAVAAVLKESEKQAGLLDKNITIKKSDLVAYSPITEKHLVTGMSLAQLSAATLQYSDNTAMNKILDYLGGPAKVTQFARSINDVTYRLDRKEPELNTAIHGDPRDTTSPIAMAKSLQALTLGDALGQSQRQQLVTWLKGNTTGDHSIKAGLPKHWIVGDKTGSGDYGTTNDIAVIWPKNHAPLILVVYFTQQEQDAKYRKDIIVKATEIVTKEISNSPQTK
The experiment is described as above. Conditions: control Cephalorizine = 100. It is filed as biochemical. On the procedure: as §1, §2, §3

Experiment [3] concerns β-lactamase, Pseudomonas aeruginosa GN 238. Described as above. The format is biochemical. Conditions: β-lactamase from Pseudomonas aeruginosa GN 238; Potassium Penicillin G = 100. On the procedure: (3) Resistant activity against β-lactamase, Pseudomonas aerugionsa GN 238:
The resistant activity of each compound against β-lactamase was measured in the manner described below.
β-Lactamase was prepared from Pseudomonas aeruginosa GN 238. This microorganism was cultured in 100 ml of a medium containing 2 g of yeast extract, 10 g of polypeptone, 2 g of glucose, 7 g of disodium hydrogen phosphate, 2 g of potassium dihydrogen phosphate, 1.2 g of ammonium sulfate and 0.4 g of magnesium sulfate, per liter, in a 500-ml Erlenmeyer flask for 6 hrs. at 37° C. with shaking. The resulting cells were collected by centrifugation (5,000 r.p.m.×10 min.), washed three times with 0.1 M phosphate buffer (pH 7.0). Subsequently, the cells were subjected to sonication (20 KHz, 20 min.) and then centrifuged at 15,000 r.p.m. for 60 min. By using the supernatant of enzyme fluid, the resistance of each compound against β-lactamase was determined by the iodometric assay method. Each numeral shown in Table 7 is a relative activity value calculated by assuming as 100 the activity of the control Potassium Penicillin G.

In another experiment the test system is Escherichia coli. Kind of experiment: MIC against clinical isolates. Conditions: Table 5-2, clinical isolate; unit assumed. It is filed as cell-based.
The test system of the next experiment is Staphylococcus aureus. Kind of experiment: MIC against clinical isolates. The format is cell-based. Conditions: Table 5-1, clinical isolate; unit assumed.
A further experiment concerns Shigella sonnei. Kind of experiment: MIC against clinical isolates. Conditions: Table 5-5, clinical isolate; unit assumed. The format is cell-based. As for the experimental part:
(§4) The minimum inhibitory concentration (MIC) was determined by the plate method disclosed in "Chemotherapy" (Japan), Vol. 16, (1968), pages 98-99. The culture medium used was a Heart infusion agar (pH 7.4). The number of the cells per plate used in the inoculum was 10^4 (10^6 cells/ml).
(§5) MIC was determined in the same manner as in the preceding paragraph (1).

Another experiment has as its system Shigella flexneri. The experiment in a line: MIC against clinical isolates. The format is cell-based. Conditions: Table 5-5, clinical isolate; unit assumed. As for the experimental part: as §4, §5

Values after ≈ are worked out from the molar mass of the structure shown.

β-lactamase, Escherichia freundii GN 346, sequence (Q46041 entry or part of it): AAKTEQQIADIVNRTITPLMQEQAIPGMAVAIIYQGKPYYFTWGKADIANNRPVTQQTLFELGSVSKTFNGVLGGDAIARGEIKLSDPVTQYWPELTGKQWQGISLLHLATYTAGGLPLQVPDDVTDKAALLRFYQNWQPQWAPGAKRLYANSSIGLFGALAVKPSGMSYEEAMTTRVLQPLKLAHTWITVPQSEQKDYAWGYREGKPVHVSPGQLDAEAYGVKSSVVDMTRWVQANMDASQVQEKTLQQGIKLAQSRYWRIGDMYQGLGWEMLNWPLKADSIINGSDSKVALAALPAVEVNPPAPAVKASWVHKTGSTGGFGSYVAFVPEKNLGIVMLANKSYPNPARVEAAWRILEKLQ

As for `CN1CCN(C(=O)NC(C(=O)NC2C(=O)N3C(C(=O)O)=C(CSc4nnnn4C)CSC23)c2ccccc2)C(=O)C1=O` (single isomer, unassigned) [Compound No. 63], in the experiment with Pseudomonas aeruginosa (Table 6-3, clinical isolate), the MIC Pseudomonas aeruginosa GN4 came out at 25 µg/mL (≈ 40.6 µM), the MIC Pseudomonas aeruginosa GN 82 was found to be 50 µg/mL (≈ 81.2 µM), the MIC Pseudomonas aeruginosa GN 376 amounted to 50 µg/mL (≈ 81.2 µM) and the MIC Pseudomonas aeruginosa GN 2565 was found to be 50 µg/mL (≈ 81.2 µM). In experiment [1], the “Relative activity (%) against β-lactamase, E. freundii GN 346” value (from here on “Relative activity (%) … E. freundii GN 346”) was 0.2%. Further, the “Relative activity (%) against β-lactamase, Pr. vulgaris GN 76” value (“Relative activity (%) … Pr. vulgaris GN 76” for short) in experiment [2] is given as 6%.

In the experiment with Pseudomonas aeruginosa (Table 6-3, clinical isolate), `O=C(Cc1cccs1)N[C@@H]1C(=O)N2C(C(=O)[O-])=C(C[n+]3ccccc3)CS[C@H]12` [Cephalorizine, reference compound] gave an MIC Pseudomonas aeruginosa GN4 of more than 200 µg/mL, an MIC Pseudomonas aeruginosa GN 82 of more than 200 µg/mL, an MIC Pseudomonas aeruginosa GN 163 of more than 200 µg/mL and an MIC Pseudomonas aeruginosa GN 221 of more than 200 µg/mL. In addition, in the experiment on Pseudomonas aeruginosa (Table 6-3, clinical isolate), the MIC Pseudomonas aeruginosa GN 376 was more than 200 µg/mL, the MIC Pseudomonas aeruginosa GN 1035 is more than 200 µg/mL, the MIC Pseudomonas aeruginosa GN 1091 is more than 200 µg/mL and the MIC Pseudomonas aeruginosa GN 2565 was more than 200 µg/mL. The same molecule gave an MIC Pseudomonas aeruginosa GN 2987 against Pseudomonas aeruginosa (Table 6-3, clinical isolate) of more than 200 µg/mL. In the experiment with Pseudomonas aeruginosa (Table 6-4, clinical isolate), this molecule showed an MIC Pseudomonas aeruginosa S-2 of more than 200 µg/mL, an MIC Pseudomonas aeruginosa S-3 of more than 200 µg/mL and an MIC Pseudomonas aeruginosa S-4 of more than 200 µg/mL. The “Relative activity (%) … E. freundii GN 346” value in experiment [1] was found to be 100%. Besides, the “Relative activity (%) … Pr. vulgaris GN 76” value in experiment [2] is reported as 100%.

On to `CC1=C(C(=O)O)N2C(=O)[C@@H](NC(=O)[C@H](N)c3ccccc3)[C@H]2SC1` [Sodium Cephalexin, reference compound], for which the “Relative activity (%) … E. freundii GN 346” value in experiment [1] was 29%. Also, the “Relative activity (%) … Pr. vulgaris GN 76” value in experiment [2] worked out at 150%.

Molecule `CC1(C)S[C@@H]2[C@H](NC(=O)C(C(=O)O)c3ccccc3)C(=O)N2[C@H]1C(=O)O` (stereo partly drawn) [Sodium Carbenicillin, reference compound] gave an MIC Pseudomonas aeruginosa GN 383 with Pseudomonas aeruginosa (Table 5-3, clinical isolate) of 50 µg/mL. For the same molecule, the “Relative activity (%), resistant activity against β-lactamase” value in experiment [3] amounted to 116%. In the experiment with Escherichia coli, the MIC Escherichia coli GN 3435 is 6.25 µg/mL, the MIC Escherichia coli GN 3452 stood at 12.5 µg/mL, the MIC Escherichia coli GN 3481 came out at 6.25 µg/mL and the MIC Escherichia coli K-1 stood at 6.25 µg/mL. In the experiment with Escherichia coli, this molecule registered an MIC Escherichia coli K-2 of 6.25 µg/mL and an MIC Escherichia coli K-4 of 12.5 µg/mL. Further, in the experiment on Staphylococcus aureus, the MIC Staphylococcus aureus F-1 is 6.25 µg/mL, the MIC Staphylococcus aureus F-2 came out at 3.13 µg/mL, the MIC Staphylococcus aureus F-3 came to 3.13 µg/mL and the MIC Staphylococcus aureus F-4 amounted to 12.5 µg/mL. In the experiment on Staphylococcus aureus, this molecule came in with an MIC Staphylococcus aureus MS 8588 of 6.25 µg/mL, an MIC Staphylococcus aureus MS 8596 of 6.25 µg/mL, an MIC Staphylococcus aureus MS 8684 of 6.25 µg/mL and an MIC Staphylococcus aureus MS 8713 of 6.25 µg/mL. In the experiment with Shigella sonnei, this molecule displayed an MIC Shigella sonnei JS 11232 of more than 200 µg/mL and an MIC Shigella sonnei JS 11755 of 12.5 µg/mL. In the experiment on Shigella flexneri, this molecule showed an MIC Shigella flexneri JS 11215 of more than 200 µg/mL and an MIC Shigella flexneri JS 11839 of 12.5 µg/mL.
